ChEMBL document CHEMBL3751682, “Synthesis, anti-inflammatory, ulcerogenic and cyclooxygenase activities of indenopyrimidine derivatives” (Bioorg Med Chem Lett, 2016)

Columns and labels:
Rattus norvegicus [1] = assay: Anti-inflammatory activity in albino Wistar rat assessed as inhibition of carrageenan-induced paw edema at 25 mg/kg, po measured every one hour for 5 hrs; type: functional
Rattus norvegicus [2] = assay: Anti-inflammatory activity in albino Wistar rat assessed as inhibition of carrageenan-induced paw edema at 50 mg/kg, po measured every one hour for 5 hrs; type: functional
Rattus norvegicus [3] = assay: Ulcerogenicity in albino Wistar rat assessed as ulcer index at 50 mg/kg, po after 20 hrs; type: toxicity, organism-based; settings: in vivo
[4] = Ratio of IC50 for human COX2 to IC50 for ovine COX1 by prostaglandin biosynthesis assay
Rattus norvegicus [5] = assay: Anti-inflammatory activity in albino Wistar rat assessed as inhibition of carrageenan-induced paw edema at 30 mg/kg, po measured every one hour for 5 hrs; type: functional
Rattus norvegicus [6] = assay: Ulcerogenicity in albino Wistar rat assessed as ulcer index at 100 mg/kg, po after 20 hrs; type: toxicity, organism-based; settings: in vivo

Compound | inhibition in vivo at 25 mg/kg (Rattus norvegicus [1]) | inhibition in vivo at 50 mg/kg (Rattus norvegicus [2]) | UI (Rattus norvegicus [3]) | Ratio IC50 [4] | inhibition in vivo at 30 mg/kg (Rattus norvegicus [5]) | UI (Rattus norvegicus [6])
Nc1nc(-c2ccc(Cl)cc2)c2c(n1)-c1ccccc1C2=O | 76% | 78% | 3 | 0.7 | – | –
O=C(O)Cc1ccccc1Nc1c(Cl)cccc1Cl [DICLOFENAC] | – | – | – | – | 85.3% | 5.7
COc1cc(-c2nc(N)nc3c2C(=O)c2ccccc2-3)cc(OC)c1OC | 75.3% | 78.7% | 2.8 | 0.69 | – | –
Nc1nc(-c2ccccc2)c2c(n1)-c1ccccc1C2=O | 76.7% | 80.7% | 3 | – | – | –
Cc1ccc(-c2cc(C(F)(F)F)nn2-c2ccc(S(N)(=O)=O)cc2)cc1 | – | – | – | 0.04 | – | –
Nc1nc(-c2ccc(Br)cc2)c2c(n1)-c1ccccc1C2=O | 76.7% | 80% | 2.9 | 0.69 | – | –
COc1cccc(-c2nc(N)nc3c2C(=O)c2ccccc2-3)c1 | 75.3% | 78% | 2.9 | 0.68 | – | –
Nc1nc(-c2ccc([N+](=O)[O-])cc2)c2c(n1)-c1ccccc1C2=O | 77.3% | 81.3% | 2.9 | – | – | –
Nc1nc(-c2cccc([N+](=O)[O-])c2)c2c(n1)-c1ccccc1C2=O | 76% | 79.3% | 2.9 | 0.7 | – | –
